From paper PMC13308190, “Endothelial progenitor cell susceptibility to DNA damaging and DDR-modulating compounds determines endothelial differentiation accuracy” (Stem Cell Research & Therapy, 2026)

What was measured:
EC d4 [1] = experiment: Mitochondrial membrane potential (TMRM-MitoTracker Green); format: cell-based, mouse; conditions: EC d4 treated 48 h, analysed in EC d6; Dox 0.05 µM
Experimental: Mitochondrial membrane potential (ΔΨm) was analyzed by live-cell imaging using TMRM-MitoTracker Green co-staining. Cells were seeded and differentiated on Poly-D-Lysine-fibronectine-coated live-imaging dishes. For staining, cells were incubated with 200nM MitoTracker Green (Invitrogen) and 50 nM TMRM (Invitrogen) in DMEM (30 min, 37 °C, 5% CO2). After washing with PBS, live-cell microscopy was performed using a spinning disc confocal microscope (PerkinElmer) equipped with a 60x oil-immersion objective (N.A = 1.49) and a Hamamatsu C9100 camera (1000 × 1000 pixel) (excitation (MitoTracker Green): 488 nm, excitation (TMRM): 561 nm). The cells were kept at 37 °C in OptiMEM supplemented with 10 mM HEPES during imaging. The images were obtained at emission wavelength of 527 nm (W55) and 615 nm (W70) for 488 nm and 561 nm excitation, respectively.

EC d6 [2] = experiment: EdU incorporation (S-phase activity); format: cell-based, mouse; conditions: EC d6 24 h; Dox up to 0.1 µM
[3] = system: primary murine cardiac endothelial cells; experiment: RT-qPCR mRNA expression; format: cell-based, mouse
EC d6 [4] = experiment: Nuclear γH2AX / 53BP1 foci (DSB); conditions: EC d6 24 h, equitoxic concentrations
EC d4 [5] = experiment: Alkaline comet assay; conditions: EC d4 48 h
EC d6 [6] = experiment: Alkaline comet assay; conditions: EC d6 24 h

**Q.** For `COc1cccc2c1C(=O)c1c(O)c3c(c(O)c1C2=O)C[C@@](O)(C(=O)CO)C[C@@H]3O[C@H]1C[C@H](N)[C@H](O)[C@H](C)O1` [Dox, doxorubicin], which mitochondrial membrane potential (EC d4 [1]) is on record?
**A.** strongest drop in mitochondrial membrane potential

**Q.** What about the “number of EdU-positive cells” value (EC d6 [2]) of the same compound?
**A.** remained unaffected

**Q.** What about the “Ccn1a mRNA” value ([3]; 1 µM, 24 h, Fig 7E) of the same compound?
**A.** 0.52 Fold of untreated control

**Q.** And the “Ccnd2 mRNA” value ([3]; 1 µM, 24 h, Fig 7E)?
**A.** 2.92 Fold of untreated control

**Q.** What about the “Cdkn1a mRNA” value ([3]; 1 µM, 24 h, Fig 7E) of the same compound?
**A.** 12.45 Fold of untreated control

**Q.** What about the “Cdkn2a mRNA” value ([3]; 1 µM, 24 h, Fig 7E) of the same compound?
**A.** 2.56 Fold of untreated control

**Q.** And the “Cxc1 mRNA” value ([3]; 1 µM, 24 h, Fig 7E)?
**A.** 10.16 Fold of untreated control

**Q.** And the “E2f1 mRNA” value ([3]; 1 µM, 24 h, Fig 7E)?
**A.** 0.54 Fold of untreated control

**Q.** What about the “Glb1 mRNA” value ([3]; 1 µM, 24 h, Fig 7E) of the same compound?
**A.** 2.10 Fold of untreated control

**Q.** And the “Il6 mRNA” value ([3]; 1 µM, 24 h, Fig 7E)?
**A.** 16.90 Fold of untreated control

**Q.** And the “Il8 mRNA” value ([3]; 1 µM, 24 h, Fig 7E)?
**A.** 2.54 Fold of untreated control

**Q.** What about the “Mmp3 mRNA” value ([3]; 1 µM, 24 h, Fig 7E) of the same compound?
**A.** 1.42 Fold of untreated control

**Q.** What about the “Mybl2 mRNA” value ([3]; 1 µM, 24 h, Fig 7E) of the same compound?
**A.** 0.053 Fold of untreated control

**Q.** And the “Tp53 mRNA” value ([3]; 1 µM, 24 h, Fig 7E)?
**A.** 1.66 Fold of untreated control

**Q.** What about the “upregulation of Il6, Cxc1 and Cdkn1a mRNA” value ([3]; Dox 24 h) of the same compound?
**A.** about 10 fold

**Q.** What about the “DSB formation (γH2AX / 53BP1 foci)” value (EC d6 [4]) of the same compound?
**A.** significant increase

**Q.** What about the “steady-state level of SSB (alkaline comet assay)” value (EC d4 [5]) of the same compound?
**A.** no or only a minor increase

**Q.** And the “steady-state level of SSB (alkaline comet assay)” value (EC d6 [6])?
**A.** no or only a minor increase
